From patent US20070249590A1, “Substituted indolo[2,3-a]pyrrolo[3,4-c]carbazole compounds useful in treating kinase disorders” (priority 2005, published 2007)

biological target: T1, JAK3 (JH1 and JH2 domain) (Homo sapiens, UniProt P52333); assay: JAK3 Kinase Assay (ELISA of peptide substrate phosphorylation); format: biochemical; conditions: purified JAK3 enzyme, 10 μM ATP, biotinylated peptide substrate, 1 hour at room temperature
T1 sequence (P52333 521-1111 limits assumed): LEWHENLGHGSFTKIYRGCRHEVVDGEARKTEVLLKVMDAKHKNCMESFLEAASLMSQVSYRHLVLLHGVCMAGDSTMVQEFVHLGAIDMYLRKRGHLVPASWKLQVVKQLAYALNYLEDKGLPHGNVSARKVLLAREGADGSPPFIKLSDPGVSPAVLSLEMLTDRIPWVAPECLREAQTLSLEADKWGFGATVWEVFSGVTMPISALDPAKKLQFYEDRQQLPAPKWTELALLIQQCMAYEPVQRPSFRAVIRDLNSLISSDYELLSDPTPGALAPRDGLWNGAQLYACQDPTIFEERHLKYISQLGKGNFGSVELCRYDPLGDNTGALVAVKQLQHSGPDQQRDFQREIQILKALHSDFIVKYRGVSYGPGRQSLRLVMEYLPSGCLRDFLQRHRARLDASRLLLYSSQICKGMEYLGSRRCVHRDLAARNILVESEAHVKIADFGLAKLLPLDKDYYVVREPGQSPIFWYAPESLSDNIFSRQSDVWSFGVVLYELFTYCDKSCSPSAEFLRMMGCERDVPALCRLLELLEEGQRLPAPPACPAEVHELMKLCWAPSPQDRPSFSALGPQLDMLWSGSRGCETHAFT
Procedure, shortened: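 Sf21-baculovirus-expressed JAK3 (JH1+JH2), glutathione-bead purified, with biotinylated peptide substrate (in buffer containing 10 μM ATP) in HEPES pH 7.5/MgCl2/DTT, 1 h RT. Product was captured on Neutravidin, detected with HRP anti-phosphotyrosine (PY99)/TMB, OD 450/650 nm. Triplicate 16-point half-log series from 200 μM gave IC50; otherwise % inhibition at 1 μM.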

Row | SMILES | IC50
1 | CN1CCC(N(C)C(=O)OC2Cn3c4ccccc4c4c5c(c6c7ccccc7n(c6c43)CC2O)C(=O)NC5=O)C1 (stereo not shown) [Cpd 108, 12,13-(2-{[N-methyl-N-(1-methyl-pyrrolidin-3-yl)]carbamoyloxy}-3-hydroxy-butan-1,4-yl)-12,13-dihydro-5,7-dioxo-6H-indolo[2,3-a]pyrrolo[3,4-c]carbazole] | 46 nM
2 | CN(C)CCCN(CCCN(C)C)C(=O)OC1Cn2c3ccccc3c3c4c(c5c6ccccc6n(c5c32)CC1O)C(=O)NC4=O (stereo not shown) [Cpd 109, 12,13-(2-{[N,N-bis-(3-dimethylamino-prop-1-yl)]carbamoyloxy}-3-hydroxy-butan-1,4-yl)-12,13-dihydro-5,7-dioxo-6H-indolo[2,3-a]pyrrolo[3,4-c]carbazole] | > 200 nM
3 | O=C1NC(=O)c2c1c1c3ccccc3n3c1c1c2c2ccccc2n1CC(OC(=O)N1CCN(CCc2ccccc2)CC1)C(O)C3 (stereo not shown) [Cpd 110, 12,13-(2-{[4-(2-phenyl-ethyl)piperazin-1-yl]carbamoyloxy}-3-hydroxy-butan-1,4-yl)-12,13-dihydro-5,7-dioxo-6H-indolo[2,3-a]pyrrolo[3,4-c]carbazole] | 916 nM
4 | O=C1NC(=O)c2c1c1c3ccccc3n3c1c1c2c2ccccc2n1CC(OC(=O)N1CCCNCC1)C(O)C3 (stereo not shown) [Cpd 111, 12,13-{2-[(hexahydro-1H-1,4-diazepin-1-yl)carbonyloxy]-3-hydroxy-butan-1,4-yl}-12,13-dihydro-5,7-dioxo-6H-indolo[2,3-a]pyrrolo[3,4-c]carbazole] | 460 nM
5 | O=C(NC1CCNCC1)OC1Cn2c3ccccc3c3c4c(c5c6ccccc6n(c5c32)CC1O)C(=O)NC4=O (stereo not shown) [Cpd 113, 12,13-[2-(piperidin-4-yl-carbamoyloxy)-3-hydroxy-butan-1,4-yl]-12,13-dihydro-5,7-dioxo-6H-indolo[2,3-a]pyrrolo[3,4-c]carbazole] | 47 nM
6 | CN(C)CCNC(=O)OC1CCCn2c3ccccc3c3c4c(c5c6ccccc6n(c5c32)C1)C(=O)NC4=O (stereo not shown) [Cpd 114, 12,13-{2-[(2-dimethylamino-ethyl)carbamoyloxy]-pentan-1,5-yl}-12,13-dihydro-5,7-dioxo-6H-indolo[2,3-a]pyrrolo[3,4-c]carbazole] | 125 nM
7 | CN(C)CCCN1CCN(C(=O)OC2CCCn3c4ccccc4c4c5c(c6c7ccccc7n(c6c43)C2)C(=O)NC5=O)CC1 (stereo not shown) [Cpd 115, 12,13-(2-{[4-(3-dimethylamino-prop-1-yl)piperazin-1-y]carbonyloxy}-pentan-1,5-yl)-12,13-dihydro-5,7-dioxo-6H-indolo[2,3-a]pyrrolo[3,4-c]carbazole] | > 200 nM
8 | CN1CCN(CCCNC(=O)OC2CCCn3c4ccccc4c4c5c(c6c7ccccc7n(c6c43)C2)C(=O)NC5=O)CC1 (stereo not shown) [Cpd 116, 12,13-(2-{[3-(4-methyl-piperazin-1-yl)prop-1-yl]carbamoyloxy}-pentan-1,5-yl)-12,13-dihydro-5,7-dioxo-6H-indolo[2,3-a]pyrrolo[3,4-c]carbazole] | > 200 nM
9 | O=C1NC(=O)c2c1c1c3ccccc3n3c1c1c2c2ccccc2n1CC(O)(C(=O)NCc1ccncc1)C(O)C3 (stereo not shown) [Cpd 117, 12,13-{2-[(pyridin-4-ylmethyl)carbamoyl]-2,3-dihydroxy-butan-1,4-yl}-12,13-dihydro-5,7-dioxo-6H-indolo[2,3-a]pyrrolo[3,4-c]carbazole] | 15 nM
10 | O=C1NC(=O)c2c1c1c3ccccc3n3c1c1c2c2ccccc2n1CC(O)(C(=O)NC(CO)CO)C(O)C3 (stereo not shown) [Cpd 118, 12,13-{2-[(1,3-hydroxy-isopropyl)carbamoyl]-2,3-dihydroxy-butan-1,4-yl}-12,13-dihydro-5,7-dioxo-6H-indolo[2,3-a]pyrrolo[3,4-c]carbazole] | 36 nM
11 | O=C1NC(=O)c2c1c1c3ccccc3n3c1c1c2c2ccccc2n1CC(O)(C(=O)NCCCN1CCOCC1)C(O)C3 (stereo not shown) [Cpd 120, 12,13-{2-[(3-morpholin-4-yl-prop-1-yl)carbamoyl]-2,3-dihydroxy-butan-1,4-yl}-12,13-dihydro-5,7-dioxo-6H-indolo[2,3-a]pyrrolo[3,4-c]carbazole] | 17 nM
12 | O=C1NC(=O)c2c1c1c3ccccc3n3c1c1c2c2ccccc2n1CC(O)(C(=O)NC1CCOC1=O)C(O)C3 (stereo not shown) [Cpd 122, 12,13-{2-[(2-oxo-tetrahydro-furan-3-yl)carbamoyl]-2,3-dihydroxy-butan-1,4-yl}-12,13-dihydro-5,7-dioxo-6H-indolo[2,3-a]pyrrolo[3,4-c]carbazole] | 63 nM
13 | CC(C)NC(=O)C1(O)Cn2c3ccccc3c3c4c(c5c6ccccc6n(c5c32)CC1O)C(=O)NC4=O (stereo not shown) [Cpd 123, 12,13-[2-(isopropyl-carbamoyl)-2,3-dihydroxy-butan-1,4-yl]-12,13-dihydro-5,7-dioxo-6H-indolo[2,3-a]pyrrolo[3,4-c]carbazole] | 80 nM
14 | COCCNC(=O)C1(O)Cn2c3ccccc3c3c4c(c5c6ccccc6n(c5c32)CC1O)C(=O)NC4=O (stereo not shown) [Cpd 124, 12,13-{2-[(2-methoxy-ethyl)carbamoyl]-2,3-dihydroxy-butan-1,4-yl}-12,13-dihydro-5,7-dioxo-6H-indolo[2,3-a]pyrrolo[3,4-c]carbazole] | 52 nM
15 | O=C1NC(=O)c2c1c1c3ccccc3n3c1c1c2c2ccccc2n1CC(O)(C(=O)NCCCN1CCCC1=O)C(O)C3 (stereo not shown) [Cpd 127, 12,13-(2-{[3-(2-oxo-pyrrolidin-1-yl)prop-1-yl]carbamoyl}-2,3-dihydroxy-butan-1,4-yl)-12,13-dihydro-5,7-dioxo-6H-indolo[2,3-a]pyrrolo[3,4-c]carbazole] | 48 nM
16 | O=C1NC(=O)c2c1c1c3ccccc3n3c1c1c2c2ccccc2n1CC(O)(C(=O)NCCc1cccs1)C(O)C3 (stereo not shown) [Cpd 128, 12,13-{2-[(2-thien-2-yl-ethyl)carbamoyl]-2,3-dihydroxy-butan-1,4-yl}-12,13-dihydro-5,7-dioxo-6H-indolo[2,3-a]pyrrolo[3,4-c]carbazole] | 94 nM

The remaining lines, values ahead:

Row | IC50 | SMILES
17 | 1080 nM | O=C1NC(=O)c2c1c1c3ccccc3n3c1c1c2c2ccccc2n1CC(OC(=O)N1CCN(c2ccccn2)CC1)C(O)C3 (stereo not shown) [Cpd 112, 12,13-{2-[(4-pyridin-2-yl-piperazin-1-yl)carbonyloxy]-3-hydroxy-butan-1,4-yl}-12,13-dihydro-5,7-dioxo-6H-indolo[2,3-a]pyrrolo[3,4-c]carbazole]
18 | 15 nM | CN(C)C1CCN(C(=O)C2(O)Cn3c4ccccc4c4c5c(c6c7ccccc7n(c6c43)CC2O)C(=O)NC5=O)C1 (stereo not shown) [Cpd 119, 12,13-{2-[(3-dimethylamino-pyrrolidin-1-yl)carbonyl]-2,3-dihydroxy-butan-1,4-yl}-12,13-dihydro-5,7-dioxo-6H-indolo[2,3-a]pyrrolo[3,4-c]carbazole]
19 | 54 nM | O=C1NC(=O)c2c1c1c3ccccc3n3c1c1c2c2ccccc2n1CC(O)(C(=O)N1CCOCC1)C(O)C3 (stereo not shown) [Cpd 121, 12,13-[2-(morpholin-4-yl-carbonyl)-2,3-dihydroxy-butan-1,4-yl]-12,13-dihydro-5,7-dioxo-6H-indolo[2,3-a]pyrrolo[3,4-c]carbazole]
20 | 27 nM | CN1CCN(C(=O)C2(O)Cn3c4ccccc4c4c5c(c6c7ccccc7n(c6c43)CC2O)C(=O)NC5=O)CC1 (stereo not shown) [Cpd 125, 12,13-{2-[(4-methyl-piperazin-1-yl)carbonyl]-2,3-dihydroxy-butan-1,4-yl}-12,13-dihydro-5,7-dioxo-6H-indolo[2,3-a]pyrrolo[3,4-c]carbazole]
21 | 55 nM | CN(C)CCCN1CCN(C(=O)C2(O)Cn3c4ccccc4c4c5c(c6c7ccccc7n(c6c43)CC2O)C(=O)NC5=O)CC1 (stereo not shown) [Cpd 126, 12,13-(2-{[4-(3-dimethylamino-prop-1-yl)piperazin-1-yl]carbonyl}-2,3-dihydroxy-butan-1,4-yl)-12,13-dihydro-5,7-dioxo-6H-indolo[2,3-a]pyrrolo[3,4-c]carbazole]
22 | 67 nM | O=C1NC(=O)c2c1c1c3ccccc3n3c1c1c2c2ccccc2n1CC(O)(C(=O)N1CCN(c2ccc(O)cc2)CC1)C(O)C3 (stereo not shown) [Cpd 129, 12,13-(2-{[4-(4-hydroxy-phenyl)piperazin-1-yl]carbonyl}-2,3-dihydroxy-butan-1,4-yl)-12,13-dihydro-5,7-dioxo-6H-indolo[2,3-a]pyrrolo[3,4-c]carbazole]
23 | 48 nM | O=C1NC(=O)c2c1c1c3ccccc3n3c1c1c2c2ccccc2n1CC(O)(C(=O)N1CCN(CCO)CC1)C(O)C3 (stereo not shown) [Cpd 130]
24 | 78 nM | O=C1NC(=O)c2c1c1c3ccccc3n3c1c1c2c2ccccc2n1CC(O)(C(=O)N1CCN(c2ccccn2)CC1)C(O)C3 (stereo not shown) [Cpd 131, 12,13-{2-[(4-pyridin-2-yl-piperazin-1-yl)carbonyl]-2,3-dihydroxy-butan-1,4-yl}-12,13-dihydro-5,7-dioxo-6H-indolo[2,3-a]pyrrolo[3,4-c]carbazole]
25 | 28 nM | O=C1NC(=O)c2c1c1c3ccccc3n3c1c1c2c2ccccc2n1CC(O)(C(=O)N1CCC(O)CC1)C(O)C3 (stereo not shown) [Cpd 132, 12,13-{2-[(4-hydroxy-piperidin-1-yl)carbonyl]-2,3-dihydroxy-butan-1,4-yl}-12,13-dihydro-5,7-dioxo-6H-indolo[2,3-a]pyrrolo[3,4-c]carbazole]
